Source: article PMC9120013, “Ribosome inhibition by C9ORF72-ALS/FTD-associated poly-PR and poly-GR proteins revealed by cryo-EM” (Nature Communications, 2022)
Where two headings read alike, the source gives them in different places. Ends that are not written are not given here.

Assays:
Format in all cases: biochemical
E. coli 70S ribosomes = assay: Kinetic peptidyl transfer (puromycin) assay on E. coli 70S ribosomes; settings: 30 nM 70S, 50 µM puromycin, 37 °C; n = 2; read-out: apparent inhibition constant (Ki) of peptidyl transfer
Protocol: The effects of GRn or PRn on peptide bond formation in E. coli ribosome were tested in an in vitro assay that reacts the 70S ribosome loaded with [^35S]-fMet-tRNA^fMet in the P-site with puromycin, an A-site tRNA mimic, and measures the release of the resulting dipeptide containing formyl-methionine covalently bonded to puromycin, as described. E. coli tRNA^fMet (Chemical Block) was aminoacylated with [^35S]-N-formyl-L-methionine (Perkin Elmer) as described. 70S ribosomes were prepared from E. coli (MRE600) as described. 70S ribosomes were stored in the ribosome-storage buffer (20 mM Tris-HCl, pH 7.0; 100 mM NH4Cl; 20 mM MgCl2) at –80 °C. A model mRNA fragment, containing the Shine-Dalgarno sequence and a spacer to position the AUG codon in the P-site and the UUC codon in the A site (GGCAAGGAGGUAAAAAUGUUC AAAAAA), was synthesized by IDT. 70S•mRNA•fMet-tRNA^fMet complexes with GRn (where n = 4, 10 or 20) or PRn (where n = 4, 10, 20 or 40) were formed as follows. 330 nM 70S ribosomes were incubated with 11 µM mRNA in buffer containing 20 mM Tris-acetate (pH 7.0), 100 mM NH4OAc, 12 mM Mg(OAc)2, for 2 min at 37 °C. 730 nM [^35S]-fMet-tRNA^fMet was added and incubated for 5 min at 37 °C. The solution was diluted 9.6-fold with the same buffer, followed by addition of a GRn or PRn repeat peptide (22x relative to its final concentration). The complex was incubated for 5 min at 37 °C prior to addition of puromycin dissolved in the same buffer (see below).
(§1) The kinetics of puromycin reaction on the 70S or 80S ribosomes were recorded and analyzed essentially as described. An aliquot (4.5 μl) of the complex prior to addition of puromycin was quenched in 30 μl of saturated MgSO4 in 0.1 M NaOAc to represent the zero-time point. Five microliters of 500 µM puromycin (in the same buffer as that used for the ribosomal complex) was added to 45 μl of the complex to initiate the reaction, yielding estimated final concentrations: 30 nM for the ribosome, 1 µM mRNA, 66 nM [^35S]-fMet-tRNA^fMet, 50 µM puromycin, and varying concentrations of PRn and GRn peptides, from 30 nM to 2 μM. After 6, 15, 30, 90 s, and 5, 15, 30, 60, and (for slower reactions) 180 min, 5-μl aliquots were quenched in 30 μl of saturated MgSO4 in 0.1 M NaOAc. All quenched samples were extracted with 700 μl ethyl-acetate. 600 μl of the extract were mixed with 3.5 ml of Econo-Safe scintillation cocktail (RPI), and the amount of released [^35S]-labeled dipeptide was measured for each time point using a scintillation counter (Beckman Coulter, Inc.).
(§2) All time progress curves were recorded in duplicates, using independently prepared 70S or 80S complexes. Reaction rates were calculated using single-exponential or double-exponential (80S complexes) regressions for different concentrations of PRn and GRn using GraphPad Prism 8. Hyperbola fitting in Gnuplot was used to derive apparent Ki-values.

[1] = biological target: translation of nanoluciferase mRNA in rabbit reticulocyte lysates; assay: Nanoluciferase mRNA translation in rabbit reticulocyte lysate, inhibitor preincubated 5 min before mRNA; settings: read-out: IC50 of translation inhibition
From the text: Rabbit reticulocyte lysates (RRL, Promega) were used to investigate the inhibition of translation by DPR proteins. We independently monitored translation of two mRNAs encoding non-homologous proteins of different lengths: nanoluciferase[71] and firefly luciferase. To measure the IC50s of the translational inhibitors cycloheximide (Akros Organics), harringtonine (AbCam), GDPCP (Jena Biosciences), PR20 and GR20, we monitored the translation of nanoluciferase mRNA in nuclease-treated RRL (Promega). […] Next, 10 ng/μl (final concentration) 6xhis-Nanoluciferase mRNA flanked with the 5'- and 3'-UTR from rabbit beta-globin[48] was added and the luminescence reactions were continuously measured by an Infinite m1000 pro microplate reader (Tecan) for 15 min at 30 °C. The 1st derivative of the luminescence reactions was determined in Prism 8 (GraphPad Software, LLC) and the maximum was identified and the mean of three maximums from independent experiments for each inhibitor was taken as the rate. The rates were plotted versus inhibitors concentration, and the plots were fitted in Prism 8 (GraphPad Software, LLC) to a 3-parameter inhibition model (Y = baseline + (max-baseline)/(1 + X/IC50)) to obtain the IC50 values where the baseline was constrained to 0. This procedure was modified to separate translation initiation from translation elongation by changing the time of addition of the inhibitors to ~300 s after mRNA addition when RLUs had reached a value of ~50,000. Here, the maximum of the first derivative was taken in the 2nd or later measurement taken after inhibitor addition.
The following additional controls indicate that DPR-induced changes in fluorescence were caused by translation inhibition.

rabbit 80S ribosomes = assay: Kinetic peptidyl transfer (puromycin) assay on rabbit 80S ribosomes
From the text: To test the effects of PR20 on the mammalian peptidyl transferase, 80S ribosomes were purified from rabbit reticulocyte lysate (Green Hectares) and dissociated into 40S and 60S subunits as described in the section entitled “Cryo-EM complex of mammalian 80S ribosome with PR20”. A model leaderless mRNA fragment placing the AUG codon in the P-site and the UUC codon in the A site (CCAC AUG UUC CCCCCCCCCCCCCCCCCC), was synthesized by IDT. The 80S•mRNA•fMet-tRNA^fMet complex with PRn (where n = 10, 20, or 40) or GR20 was assembled as follows. one micrometer 60S subunit was mixed with the DPR (starting with the initial DPR concentration of 33x relative to its final concentration in the reaction) in Assembly Buffer containing 20 mM Tris-acetate (pH 7.0), 100 mM KOAc, 10 mM Mg(OAc)2, and the mixture was incubated for 5 min at 30 °C. […] 1095 nM [^35S]-fMet-tRNA^fMet and the 60S solution were added (0.5 volumes of the 40S solution), resulting in the following concentrations: 330 nM 60S, 400 nM 40S, 730 nM tRNA, 11 µM mRNA and 11x of final concentration of a DPR in the buffer (20 mM Tris-acetate (pH 7.0), 100 mM KOAc, 10 mM Mg(OAc)2). The solution was incubated for 5 min at 30 °C. The solution was diluted ten times with the same buffer, then puromycin (prepared in the same buffer) was added and time progress curves were recorded.
as §1, §2

[2] = 50% RRL, 5-min preincubation at 30 °C before nanoluciferase mRNA, maximal rate vs concentration, n = 3, mean ± SEM

Molecule	Ki (E. coli 70S ribosomes)	IC50 ([1]; 33% RRL)	IC50 [1, 2]	concentration at which inhibition of peptidyl transfer starts (rabbit 80S ribosomes; 30 nM 80S)	effect on peptidyl transfer on rabbit 80S (rabbit 80S ribosomes; 2 µM, n=2)
PRPRPRPRPRPRPRPRPRPRPRPRPRPRPRPRPRPRPRPR [PR20]	44 ± 9 nM	325 nM	840 nM	~ 100 nM	–
N=C(N)NCCC[C@H](NC(=O)CNC(=O)[C@H](CCCNC(=N)N)NC(=O)CNC(=O)[C@H](CCCNC(=N)N)NC(=O)CNC(=O)[C@H](CCCNC(=N)N)NC(=O)CNC(=O)[C@H](CCCNC(=N)N)NC(=O)CNC(=O)[C@H](CCCNC(=N)N)NC(=O)CNC(=O)[C@H](CCCNC(=N)N)NC(=O)CNC(=O)[C@H](CCCNC(=N)N)NC(=O)CNC(=O)[C@H](CCCNC(=N)N)NC(=O)CNC(=O)[C@H](CCCNC(=N)N)NC(=O)CNC(=O)[C@H](CCCNC(=N)N)NC(=O)CNC(=O)[C@H](CCCNC(=N)N)NC(=O)CNC(=O)[C@H](CCCNC(=N)N)NC(=O)CNC(=O)[C@H](CCCNC(=N)N)NC(=O)CNC(=O)[C@H](CCCNC(=N)N)NC(=O)CNC(=O)[C@H](CCCNC(=N)N)NC(=O)CNC(=O)[C@H](CCCNC(=N)N)NC(=O)CNC(=O)[C@H](CCCNC(=N)N)NC(=O)CNC(=O)[C@H](CCCNC(=N)N)NC(=O)CNC(=O)[C@H](CCCNC(=N)N)NC(=O)CN)C(=O)O [GR20]	164 ± 31 nM	425 nM	640 nM	–	inhibits peptidyl transfer
